Reference: ChEMBL document CHEMBL1130818, “High affinity, selective neurokinin 2 and neurokinin 3 receptor antagonists from a common structural template” (Bioorg Med Chem Lett, 1998)

Tests used:
Neuromedin-K receptor = target: T1, Neuromedin-K receptor (Homo sapiens, UniProt P29371); assay: Compound was evaluated for affinity towards human Neurokinin NK3 receptor
T1 sequence (P29371 whole entry): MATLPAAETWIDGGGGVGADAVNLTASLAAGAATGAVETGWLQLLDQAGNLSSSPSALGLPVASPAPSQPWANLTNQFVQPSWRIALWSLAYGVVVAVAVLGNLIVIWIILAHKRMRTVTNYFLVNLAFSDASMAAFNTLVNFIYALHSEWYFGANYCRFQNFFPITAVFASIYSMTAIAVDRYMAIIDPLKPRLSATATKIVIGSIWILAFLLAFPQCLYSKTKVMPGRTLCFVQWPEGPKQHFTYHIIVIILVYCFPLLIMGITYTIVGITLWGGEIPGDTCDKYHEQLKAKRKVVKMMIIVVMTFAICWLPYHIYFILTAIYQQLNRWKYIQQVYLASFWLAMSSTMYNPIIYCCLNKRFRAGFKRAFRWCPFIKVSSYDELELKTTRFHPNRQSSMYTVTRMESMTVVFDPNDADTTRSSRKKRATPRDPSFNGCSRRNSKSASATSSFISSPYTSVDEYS

Substance-P receptor = Substance-P receptor (Homo sapiens, UniProt P25103); assay: Compound was evaluated for affinity towards human Neurokinin NK1 receptor
Substance-K receptor = target: T2, Substance-K receptor (Homo sapiens, UniProt P21452); assay: Compound was evaluated for affinity towards human Neurokinin NK2 receptor
T2 sequence (P21452 whole entry): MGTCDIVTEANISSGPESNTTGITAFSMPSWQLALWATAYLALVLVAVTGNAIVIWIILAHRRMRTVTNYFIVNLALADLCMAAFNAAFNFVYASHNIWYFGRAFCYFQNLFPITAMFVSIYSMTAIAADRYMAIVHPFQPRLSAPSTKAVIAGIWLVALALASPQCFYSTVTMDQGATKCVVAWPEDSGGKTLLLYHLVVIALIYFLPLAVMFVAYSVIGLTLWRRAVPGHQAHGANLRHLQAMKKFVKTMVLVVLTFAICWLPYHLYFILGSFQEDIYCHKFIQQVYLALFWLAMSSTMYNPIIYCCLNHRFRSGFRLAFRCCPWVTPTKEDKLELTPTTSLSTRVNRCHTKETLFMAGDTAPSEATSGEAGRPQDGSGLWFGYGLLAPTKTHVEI

Sequence of Substance-P receptor (P25103 whole entry): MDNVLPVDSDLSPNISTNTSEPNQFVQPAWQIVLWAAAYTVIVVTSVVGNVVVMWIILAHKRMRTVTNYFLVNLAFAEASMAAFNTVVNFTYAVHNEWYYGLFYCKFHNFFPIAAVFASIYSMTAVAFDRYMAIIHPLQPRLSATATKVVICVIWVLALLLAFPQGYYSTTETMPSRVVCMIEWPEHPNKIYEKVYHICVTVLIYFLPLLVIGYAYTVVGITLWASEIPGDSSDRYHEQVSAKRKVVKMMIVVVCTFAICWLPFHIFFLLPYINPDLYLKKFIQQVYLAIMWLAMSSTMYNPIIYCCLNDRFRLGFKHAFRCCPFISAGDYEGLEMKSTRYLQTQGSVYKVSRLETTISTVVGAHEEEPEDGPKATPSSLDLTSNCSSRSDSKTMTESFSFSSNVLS

Row | SMILES | IC50 (Neuromedin-K receptor) | IC50 (Substance-P receptor) | IC50 (Substance-K receptor)
1 | O=C1CCC(CCCN2CCC(n3c(=O)[nH]c4ccccc43)CC2)(c2ccc(Cl)c(Cl)c2)CN1Cc1ccccc1 (configuration not stated) | 539 nM | 743 nM | 6.4 nM
2 | CC(=O)C1(c2ccccc2)CCN(CCCC2(c3ccc(Cl)c(Cl)c3)CCC(=O)N(Cc3ccccc3)C2)CC1 (configuration not stated) | 19 nM | 1030 nM | 3.9 nM
3 | CC(=O)C1(c2ccccc2)CCN(CCCC2(c3ccc(Cl)c(Cl)c3)CCCN(C(=O)c3ccccc3)C2)CC1 (configuration not stated) | 1.5 nM | 460 nM | 389 nM
4 | CS(=O)(=O)N1CC2(CCN(CCCC3(c4ccc(Cl)c(Cl)c4)CCC(=O)N(Cc4ccccc4)C3)CC2)c2ccccc21 (configuration not stated) | 25 nM | 763 nM | 2.2 nM
5 | O=C1CCC(CCCN2CCC3(CC2)CN(c2ccccc2)NC3=O)(c2ccc(Cl)c(Cl)c2)CN1Cc1ccccc1 (configuration not stated) | 127 nM | 892 nM | 2.5 nM

Next, values leading:

Row | IC50 (Neuromedin-K receptor) | IC50 (Substance-P receptor) | IC50 (Substance-K receptor) | SMILES
6 | 2.6 nM | 272 nM | 204 nM | O=C(c1ccccc1)N1CCCC(CCCN2CCC3(CCc4ccccc43)CC2)(c2ccc(Cl)c(Cl)c2)C1 (configuration not stated)
7 | 6.8 nM | 108 nM | 50 nM | O=C(c1ccccc1)N1CCCC(CCCN2CCC3(CC2)CN(c2ccccc2)NC3=O)(c2ccc(Cl)c(Cl)c2)C1 (configuration not stated)
8 | 1.2 nM | 497 nM | 177 nM | CS(=O)(=O)N1CC2(CCN(CCCC3(c4ccc(Cl)c(Cl)c4)CCCN(C(=O)c4ccccc4)C3)CC2)c2ccccc21 (configuration not stated)
9 | 7.9 nM | 379 nM | 348 nM | O=C(c1ccccc1)N1CCCC(CCCN2CCC(n3c(=O)[nH]c4ccccc43)CC2)(c2ccc(Cl)c(Cl)c2)C1 (configuration not stated)
